Measured values as given in patent publication US8198084B2, “Serum-free mammalian cell culture medium, and uses thereof” (Life Technologies Corporation, priority 1996, dated 2012).

Experiments:
rβ-gal CHO cells [1] = test: rβ-Gal assay (ONPG) in lysates of rβ-gal CHO cells; format: cell-based, Chinese hamster; details: for level of rβ-gal expression versus CD CHO control: Example 14, 25 μg/mL in CD CHO medium, FIG. 14
Protocol: rβ-Galactosidase (rβ-gal or rβeta-Gal) was measured in cell lysates using a modification of the method described by Hall et al., J. Mol. Appl. Gen. 2:101-109 (1983) and Miller, Experiments in Molecular Genetics, Cold Spring Harbor Laboratory (1972). Briefly, a 2.0 ml sample of cell suspension was collected from each sample and subjected to two freeze-thaw cycles, centrifuged at 100× g for 4 minutes, and the supernatant was saved for rβ-Galactosidase quantitation. 100 μl of each supernatant sample was added to 1.0 ml Z buffer (0.06 M Na2HPO4, 0.04M NaH2PO4, 0.01M KCl, 0.01M MgSO4-7H2O, 0.05M β-mercaptoethanol, pH 7.0), followed by 200 μl of o-nitrophenyl-p-D-galactoside (ONPG, 4.0 mg/ml in dH20) and incubated at 37° C. for 120 minutes. The reaction was halted by addition of 500 μl stop buffer (1M Na2CO3) and absorbance at 420 nm was read against a blank of the appropriate medium. Activity was calculated using the following formulae:
[formula] Units rβ-galactosidase/# of cells=Activity/cell 2.

rβ-gal CHO cells [2] = test: Growth (cell density) of rβ-gal CHO cells in suspension culture; format: cell-based, Chinese hamster; details: for cell growth and viability versus CD CHO control: Example 14, 25 μg/mL in CD CHO medium, FIG. 13
Protocol: To establish a recombinant β-galactosidase (rβ-Gal) CHO cell line, CHO cells deficient in dihydrofolate reductase (DHFR^−) were obtained from ATCC(CRL-9096, Rockville, Md.) and transfected with two plasmids: pSV2dhfr (ATCC 37146), containing a gene for methotrexate (MTX) resistance, and pCMVβgal, which contains the lacZ cDNA. The transfection was conducted using LipofectAMINE™ Reagent, and selection was accomplished with 1.2 μM methotrexate (Sigma Chemical Co., St Louis, Mo.). Stock cultures were maintained in CHO-S-SFM II or CHO III Prototype supplemented with 0.3 μM MTX.
Unless indicated otherwise below, CHO cell culture conditions were as follows for the following Examples. 25-35 mL of CHO cells were cultured in 125 mL shake flasks in humidified air containing 5-10% carbon dioxide. The shake flasks were shaken on an orbital shaking platform at 125-135 rpm. Temperature was maintained at 37° C. Cells were subcultured every three to four days to a density of 2−3×10^5 cells/mL.

[3] = test system: 293 human embryonic kidney cells; test: Suspension culture of 293 cells: cell density and viability; format: cell-based; details: lower-protein media, transferrin replaced by iron chelate; FIG. 2
Protocol: Adenovirus type 5-transformed 293 human embryonic kidney epithelial cells were obtained from ATCC(CRL 1573), and were cultured as described in Example 4 by incubation at 37° C. in a humidified atmosphere consisting of 8% CO2/92% air.
Cultures of 293 cells in serum-supplemented media were weaned from serum by passage 2-3 times in OptiMEM medium (Life Technologies, Inc.; Rockville, Md.) supplemented with 2% normal horse serum in 165 cm^2 culture flasks. After the second or third passage, when cells reached 50-75% confluence, they were dislodged from the growth surfaces by gently rapping the flasks several times; trypsin or other proteolytic agents were not used, since such agents often cause irreversible damage to cells cultivated in low-serum or serum-free media. Cells were resuspended in the present culture media and triturated until aggregates dispersed into a single cell suspension, and cell concentration and viability was determined by trypan blue exclusion counting on a hemacytometer according to routine procedures.
Cells were then seeded into the present culture medium in Erlenmeyer flasks at a density of about 2.5−3.0×10^5 cells/ml. […] Cell densities and viabilities were determined at least every other day, and cells were subcultured when the density approached about 7.5−10.0×10^5 cells/ml by diluting cultures with fresh culture medium to a density of about 2.5−3.0×10^5 cells/ml. […]

CN(Cc1cnc2nc(N)nc(N)c2n1)c1ccc(C(=O)N[C@@H](CCC(=O)O)C(=O)O)cc1 [MTX, methotrexate, reference compound]
relation of concentration to rβ-galactosidase specific activity (rβ-gal CHO cells [1]; Example 9, CD CHO medium with increasing concentrations, FIG. 7B): proportional | relation of concentration to cell density (rβ-gal CHO cells [2]; Example 9, CD CHO medium with increasing concentrations, FIG. 7A): inversely proportional

FeCl3-sodium citrate
support of 293 cell growth compared with complete media [3]: performed equivalently to complete media

FeSO4-EDTA
support of 293 cell growth compared with complete media [3]: performed equivalently to complete media

dextran sulfate [dextran sulfate (m.w. 5,000)]
level of rβ-gal expression versus CD CHO control (rβ-gal CHO cells [1]): an increase in the level of rβ-gal expression at days 5, 7, and 9 | cell growth and viability versus CD CHO control (rβ-gal CHO cells [2]): increased cell growth and viability at days 5, 7, and 9

dextran sulfate [dextran sulfate (m.w. 500,000)]
level of rβ-gal expression versus CD CHO control (rβ-gal CHO cells [1]): did not display enhanced expression | cell growth and viability versus CD CHO control (rβ-gal CHO cells [2]): increased cell growth and viability at days 5 and 7, but not at day 9
